Experiment [1] deals with T1, Firefly Luciferase (Photinus pyralis, UniProt P08659, K549A/L550V/N119G/N50D/S548I).
T1 construct: host or cells: Chinese hamster ovary (CHO) cells, transient transfection, cleared lysate
Kind of experiment: biochemical. It counts as biochemical.

For experiment [2], the target named is T2, Renilla Luciferase (Renilla reniformis, UniProt P27652).
T2 sequence (P27652 1-311): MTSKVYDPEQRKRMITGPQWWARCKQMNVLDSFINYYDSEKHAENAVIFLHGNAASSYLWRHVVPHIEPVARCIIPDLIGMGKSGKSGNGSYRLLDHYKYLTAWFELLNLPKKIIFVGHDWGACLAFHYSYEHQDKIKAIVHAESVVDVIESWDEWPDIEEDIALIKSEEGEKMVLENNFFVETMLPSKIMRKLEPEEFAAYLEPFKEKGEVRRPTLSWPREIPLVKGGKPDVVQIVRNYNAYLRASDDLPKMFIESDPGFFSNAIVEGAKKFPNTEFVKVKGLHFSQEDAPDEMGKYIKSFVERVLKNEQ
Kind of experiment: Quenching of the luminescent reaction of Renilla luciferase by RLQ reagents (Table 3). In kind it is biochemical. The procedure:
Numerous chemical compounds were tested individually and in combination for their ability to rapidly quench luciferase catalyzed luminescent reactions. Table 1 and Table 3 present the potency of quenching firefly and Renilla luciferases, respectively, for representative concentrations of the compounds tested. The percentage of residual luminescent signal measured after addition of the test compound is indicative of its quenching efficiency. Whether used individually or in combination at varying concentrations, useful quench formulations should be capable of reducing luminescence from the luciferase reactions by 1,000-fold, i.e., to 0.1% of the starting luminescent emission.
Renilla luciferase reactions were performed by adding 100 μl of purified Renilla luciferase (typically diluted to 0.3 μg per ml in 75 mM HEPES, 0.02% BSA; pH 8) to a luminometer tube containing an equal volume of Renilla substrate solution (7.5 mM sodium acetate, 10 mM CDTA, 400 mM sodium sulfate, 25 μM APMBT, 15 mM sodium pyrophosphate, 2 μM coelenterazine; pH 5.5). Photon emission was quantified as previously described. The individual and combined chemical formulations summarized in Table 3 were evaluated for their ability to quench Renilla luciferase luminescence by adding 100 μl of the test solution to the luminescent reaction, then quantifying residual light emission as before.

Experiment [3] deals with T2, Renilla Luciferase. Kind of experiment: Compatibility of BLA and BLQ reagent chemicals with the luminescent reaction of Renilla luciferase (Table 4). In kind it is biochemical. An excerpt:
Implicit to the concept of an integrated (i.e., sequential-measurement) dual-enzyme reporter assay is the necessity to efficiently quench luminescence from the first reporter enzyme such that the activity of the second luminescent reporter is not inhibited. Therefore a quench reagent is required that is extremely potent in quenching luminescence from the firefly reaction but can exist as a passive component in the subsequent luminesces reaction catalyzed by Renilla luciferase. Selected chemical components of Beetle Luciferase Activation (BLA) Reagent, and chemicals identified in Table 1 as candidate Beetle Luciferase Quench (BLQ) Reagents, were further evaluated to assess any inhibitory interaction they may have with the luminescent reaction catalyzed by Renilla luciferase. Table 4 summarizes the affect of these selected chemicals on the luminescent activity of Renilla luciferase. Because of its potent inhibitory affect on the firefly reaction, sodium pyrophosphate (Na4 PPi) was tested first. 100 μl Mathews' Buffer supplemented with 2 μM benzyl-coelenterazine and 15 mM Na4 PPi was dispensed into a luminometer tube containing approximately 3 ng of purified Renilla luciferase in 100 μl Mathews' Buffer, and luminescence was quantified. […]

In experiment [4] the target is T1, Firefly Luciferase. Kind of experiment: biochemical. The conditions noted are these: read-out: Percent (%) Residual Firefly Luciferase Activity.
Description: Assays were performed using a cell extract prepared from CHO cells expressing firefly luciferase (described in detail below) and further supplemented with purified Renilla luciferase (approximately 0.3 μg/ml). Thus, the prepared extract simulates the experimental condition in which a single cell population is induced to simultaneously express two distinct luciferase reporter enzymes. Reactions to determine Renilla luciferase activity were conducted by first dispensing 10 μl of extract into a luminometer tube containing 100 μl BLA Reagent (75 mM HEPES, 4 mM MgSO4, 20 mM DTT, 100 μM EDTA, 530 μM ATP, 270 μM CoA, 470 μM beetle luciferin: pH 8.0), then adding 100 μl of one of the various BLQRLA test reagents. The 100% control value for Reporter #1, the firefly luciferase-mediated luminescent reaction, was determined by quantifying light emission from said reaction prior to addition of the designated BLQRLA Reagent. The 100% control value for Reporter #2, the Renilla luciferase-mediated luminescent reaction, was determined using the dual-reporter assay format in which
control BLQRLA Reagent (7.5 mM acetic acid, 15 mM Na4 PPi, 400 mM Na2 SO4, 2 μM coelenterazine; pH 5.0) was added to the firefly luciferase reaction in a 1:1 volume ratio.
The mark [5] stands for this setting: read-out: Percent (%) Residual Firefly Luciferase Activity.
Setting [6] is: assay concentration 0.33% (v/v).

T1 sequence (P08659 whole entry N50D/N119G/S548I/K549A/L550V): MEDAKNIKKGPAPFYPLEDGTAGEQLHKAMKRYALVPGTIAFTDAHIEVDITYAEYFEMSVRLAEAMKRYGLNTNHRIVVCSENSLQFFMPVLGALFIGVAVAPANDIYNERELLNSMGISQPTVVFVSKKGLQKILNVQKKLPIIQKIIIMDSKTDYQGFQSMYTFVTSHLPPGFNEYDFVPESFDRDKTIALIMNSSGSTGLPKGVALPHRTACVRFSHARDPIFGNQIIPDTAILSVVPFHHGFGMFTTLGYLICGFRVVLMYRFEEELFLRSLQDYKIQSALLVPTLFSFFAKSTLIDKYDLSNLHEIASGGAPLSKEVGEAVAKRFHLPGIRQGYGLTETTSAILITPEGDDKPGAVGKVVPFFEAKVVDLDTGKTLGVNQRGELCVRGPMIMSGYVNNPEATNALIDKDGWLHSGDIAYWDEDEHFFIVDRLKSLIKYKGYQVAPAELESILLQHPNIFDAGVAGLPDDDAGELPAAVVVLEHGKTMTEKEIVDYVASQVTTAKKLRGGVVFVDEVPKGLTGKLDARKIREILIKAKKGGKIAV

With `O=C(O)CN(CC(=O)O)[C@@H]1CCCC[C@H]1N(CC(=O)O)CC(=O)O` (relative stereo) [CDTA, trans-1,2,-Diaminocyclohexane-N,N,N',N'-tetraacetic acid], the remaining activity at 15400 µM in experiment [1] (setting [5]) stood at 0.1%.

Take `Cc1ccc2nc(-c3ccc(N)cc3)sc2c1` [APMBT, 2-(4-aminophenyl)-6-methylbenzothiazole]: the remaining activity at 7.6 µM in experiment [1] (setting [5]) was determined as 0.33%. With `CCCCCCCCCCP(C)(C)=O` [APO-10, Dimethyldecylphosphine Oxide], the remaining activity at 1 % in experiment [1] (setting [5]) was 1.9%. Regarding `c1ccc2scnc2c1` [BT, Benzothiazole], the remaining activity at 3000 µM in experiment [1] (setting [5]) came out at 2.3%. For the molecule `O=C(O)CC(O)(CC(=O)O)C(=O)O` [Citric Acid, pH 3, citric acid], the remaining activity at 6670 µM in experiment [2] (assay concentration 6.67 mM, read-out: Percent (%) Residual Renilla Luciferase Activity) was found to be 5.3%. For the molecule `O=C(O)c1csc(-c2nc3ccc(O)cc3s2)n1` [Dehydroluciferin, 2-(6'-Hydroxy-2'-benzothiazolyl)-thiazole-4-carboxylic acid], the “Percent (%) Residual Firefly Luciferase Activity” value in experiment [1] (assay concentration: Saturating) was found to be 0.064%. Regarding `O=C(O)CN(CCN(CC(=O)O)CC(=O)O)CC(=O)O` [EDTA, Ethylenediaminetetraacetic acid], in experiment [1] (setting [5]), the remaining activity at 22700 µM worked out at 0.13%. Consider `Oc1ccccc1-c1nc2ccccc2s1` [HPBT, 2(O-Hydroxyphenyl)benzothiazole], for which the remaining activity at 30 µM in experiment [1] (setting [5]) amounted to 44%.

`O=P([O-])([O-])O.[K+].[K+]` [K2 HPO4]: the “Percent (%) Residual Firefly Luciferase Activity” value in experiment [1] (assay concentration 190 mM) worked out at 8.3%. Regarding `O=S(=O)([O-])[O-].[Na+].[Na+]` [Na2 SO4, sodium sulfate], the “Percent (%) Residual Firefly Luciferase Activity” value in experiment [1] (assay concentration 400 mM) is given as 10%. Regarding `O=P([O-])([O-])OP(=O)([O-])[O-].[Na+].[Na+].[Na+].[Na+]` [Na4 PPi, Tetrasodium Pyrophosphate], in experiment [1] (setting [5]), the remaining activity at 31000 µM came out at 0.12%. Further, the “inhibitory effect on the luminescent reaction catalyzed by Renilla luciferase” value in experiment [3] (Mathews' Buffer with 15 mM Na4 PPi added 1:1, compared to control lacking sodium pyrophosphate) is “no inhibitory affect”. For the same molecule, the activity at 7500 µM in experiment [3] (assay concentration 7.5 mM, control = 100%, read-out: Percent (%) Renilla Luciferase Activity) came to 102%. Besides, the remaining activity at 7500 µM in experiment [4] was determined as 1%. `[Cl-].[Na+]` [NaCl]: the “Percent (%) Residual Firefly Luciferase Activity” value in experiment [1] (assay concentration 400 mM) came to 8.3%.

In the case of `[I-].[Na+]` [NaI, sodium iodide], the “Percent (%) Residual Firefly Luciferase Activity” value in experiment [1] (assay concentration 400 mM) came to 0.078%. In experiment [2] (assay concentration 330 mM), the “Percent (%) Residual Renilla Luciferase Activity” value is 5.9%. In the case of `O=[N+]([O-])[O-].[Na+]` [NaNO3], the “Percent (%) Residual Firefly Luciferase Activity” value in experiment [1] (assay concentration 400 mM) was determined as 2.1%. Take `c1ccc(-c2nc3ccccc3s2)cc1` [PBT, 2-Phenylbenzothiazole]: the remaining activity at 150 µM in experiment [1] (assay concentration 0.15 mM, read-out: Percent (%) Residual Firefly Luciferase Activity) was found to be 7.5%.

As for `CCCCCCCCCCCCOS(=O)(=O)[O-].[Na+]` [SDS, Sodium Dodecyl Sulfate], the remaining activity at 0.3 % in experiment [1] (setting [5]) stood at 0.079%. Besides, the remaining activity at 0.33 % in experiment [2] (assay concentration 0.33% (w/v), read-out: Percent (%) Residual Renilla Luciferase Activity) worked out at 0.00029%.

Turning to `CC(C)O` [iso-Propanol, iso-propanol], the remaining activity at 14.4 % in experiment [1] (setting [5]) worked out at 2.3%. `CCCCO` [n-Butanol, n-butanol]: the remaining activity at 1.67 % in experiment [2] (assay concentration 1.67% (v/v), read-out: Percent (%) Residual Renilla Luciferase Activity) came out at 4.5%. Turning to `Nc1ncnc2c1ncn2[C@@H](CO)O[C@@H](CO)COP(=O)(O)OP(=O)(O)OP(=O)(O)O` [or-ATP, Adenosine 5'-Triphosphate 2',3'-acyclic dialcohol, Periodate Oxidized, Borohydride Reduced], the remaining activity at 7600 µM in experiment [1] (setting [5]) was 0.78%. As to Triton ® X-100, the “Percent (%) Residual Renilla Luciferase Activity” value in experiment [2] (setting [6]) is recorded as 3.1%. Regarding Tween ®20, the “Percent (%) Residual Renilla Luciferase Activity” value in experiment [2] (setting [6]) turned out to be 3.4%.

The values are drawn from patent US5744320A (priority 1995, dated 1998).
